This data set is described as follows: RP, Thermo Scientific Acclaim RSLC 120 C18, 100 × 2.1 mm, 2.2 µm, 30 °C, 0.2 mL/min, estimated dead time 1.1 min; A: 90% water + 10% methanol + 0.01% formic acid + 5 mM ammonium formate, pH 3.61; B: methanol + 0.01% formic acid + 5 mM ammonium formate, pH 3.61; gradient (min/%B) 0/1 1/1 2/39 13/99.9 15/99.9 15.1/1 20.1/1. To be noted: stereoisomer not certain.

Drawing on the RepoRT retention time repository (doi:10.1021/acs.analchem.2c02893), this text covers LC retention time for 76 compounds.

SMILES strings stand for the structures.

With `CC12CCC(=O)C=C1C1CC1C1C2CCC2(C)C1C1CC1C21CCC(=O)O1` (stereo unspecified) [Drospirenone], the LC retention time was 9.56 min. For the compound `CNCCC(Oc1cccc2ccccc12)c1cccs1` (stereo unspecified) [Duloxetine], the LC retention time was 8.11 min. Then `CC(=O)C1CCC2C3C=CC4=CC(=O)CCC4(C)C3CCC12C` (stereo unspecified) [Dydrogesterone], with 10.7 min.

For the compound `CC12CCC3c4ccc(O)cc4CCC3C1CCC2=O` (stereo unspecified) [E1 (1-3-5(10)-estratrien-3-ol-17-one estrone)], the LC retention time was 9.56 min. With `CC12CCC3c4ccc(O)cc4CCC3C1CC(O)C2O` (stereo unspecified) [E3  estriol (1-3-5(10)-estratrien-3 16-17-triol)], the LC retention time is 6.83 min. In the case of `CCc1ccc(C(=O)c2cn(CCCCCF)c3ccccc23)c2ccccc12` [EAM-2201] it was 12.2 min; in that of `CC=C1N(C)C(C)CC1(c1ccccc1)c1ccccc1` (stereo unspecified) [EDDP], 6.38 min; in that of `C#CC1(O)CCC2C3CCc4cc(O)ccc4C3CCC21C` (stereo unspecified) [EE2 - Ethinyl estradiol], 9.46 min. Then `CCCCCn1c2ccccc2c2cc(C(=O)c3cccc4ccccc34)ccc21` [EG-018], with 14.2 min; and `COC(=O)C1C(O)CC2CCC1N2C` (stereo unspecified) [EME (Ecgonine methyl ester)], with 1.38 min; and `CCOP(=S)(Oc1ccc([N+](=O)[O-])cc1)c1ccccc1` (stereo unspecified) [EPN], with 11.7 min. In the case of `CCCN(CCC)C(=O)SCC` [EPTC] it was 10.7 min.

For the compound `CCC(N)Cc1c[nH]c2ccccc12` (stereo not drawn) [ET- alpha], the LC retention time was 5.04 min. Then `CC(C)(C)c1ccc(C(=O)CCCN2CCC(OC(c3ccccc3)c3ccccc3)CC2)cc1` [Ebastine], with 10.9 min.

On to `CCOP(=O)(Sc1ccccc1)Sc1ccccc1` [Edifenphos], for which the LC retention time is 10.8 min. Then `O=C1Nc2ccc(Cl)cc2C(C#CC2CC2)(C(F)(F)F)O1` (stereo unspecified) [Efavirenz], with 10.7 min; and `CN1CCCC1Cc1c[nH]c2ccc(CCS(=O)(=O)c3ccccc3)cc12` (stereo unspecified) [Eletriptan], with 5.51 min.

Take `CCC(C)C1OC2(C=CC1C)CC1CC(CC=C(C)C(OC3CC(OC)C(OC4CC(OC)C(NC)C(C)O4)C(C)O3)C(C)C=CC=C3COC4C(O)C(C)=CC(C(=O)O1)C34O)O2` (stereo unspecified) [Emamectin B1a]: the LC retention time was 12.4 min. Then `CNC1C(C)OC(OC2C(C)OC(OC3C(C)=CCC4CC(CC5(C=CC(C)C(C(C)C)O5)O4)OC(=O)C4C=C(C)C(O)C5OCC(=CC=CC3C)C45O)CC2OC)CC1OC` (stereo unspecified) [Emamectin B1b], with 12 min. For the compound `CCC(CC)(CNC(=O)CCCO)c1cccc(OC)c1` [Embutramide], the LC retention time was 8.98 min.

In the case of `Nc1nc(=O)n(C2CSC(CO)O2)cc1F` (stereo unspecified) [Emtricitabine], the LC retention time was 3.41 min. `CCOC(=O)C(CCc1ccccc1)NC(C)C(=O)N1CCCC1C(=O)O` (stereo unspecified) [Enalapril]: the LC retention time was 6.83 min. In the case of `O=S1(=O)OCC2C(CO1)C1(Cl)C(Cl)=C(Cl)C2(Cl)C1(Cl)Cl` (stereo unspecified) [Endosulfan-sulfate] it was 11.1 min; in that of `O=S1OCC2C(CO1)C1(Cl)C(Cl)=C(Cl)C2(Cl)C1(Cl)Cl` (stereo unspecified) [Endosulfan], 11.2 min; in that of `O=C(O)C1C2CCC(O2)C1C(=O)O` (stereo unspecified) [Endothal], 3.2 min. Take `CSc1ccc(C(=O)c2[nH]c(=O)[nH]c2C)cc1` [Enoximon]: the LC retention time is 6.67 min. In the case of `CCN1CCN(c2cc3c(cc2F)c(=O)c(C(=O)O)cn3C2CC2)CC1` [Enrofloxacin] it was 4.64 min; in that of `CCN(CC)C(=O)C(C#N)=Cc1cc(O)c(O)c([N+](=O)[O-])c1` [Entacapon], 6.89 min; in that of `CNCC(O)c1ccc(O)c(O)c1` (stereo unspecified) [Epinephrine], 1.38 min. In the case of `Fc1ccc(C2(Cn3cncn3)OC2c2ccccc2Cl)cc1` (stereo unspecified) [Epoxiconazole] it was 10.3 min; in that of `CCCCc1ncc(C=C(Cc2cccs2)C(=O)O)n1Cc1ccc(C(=O)O)cc1` [Eprosartan], 7.49 min; in that of `CC(C)C1(NC(=O)C2CC3c4cccc5[nH]cc(c45)CC3N(C)C2)OC2(O)C3CCCN3C(=O)C(Cc3ccccc3)N2C1=O` (stereo unspecified) [Ergocristine-Dihydro], 8.17 min. In the case of `CCC(CO)NC(=O)C1C=C2c3cccc4[nH]cc(c34)CC2N(C)C1` (stereo unspecified) [Ergometrine-Methyl] it was 4.34 min. With `CCC1OC(=O)C(C)C(OC2CC(C)(OC)C(O)C(C)O2)C(C)C(OC2OC(C)CC(N(C)C)C2O)C(C)(O)CC(C)C(=O)C(C)C(O)C1(C)O` (stereo unspecified) [Erythromycin], the LC retention time is 8 min. In the case of `O=c1ccc2cc(OC3OC(CO)C(O)C(O)C3O)c(O)cc2o1` (stereo unspecified) [Esculin] it was 3.69 min.

Consider `COC(=O)CCc1ccc(OCC(O)CNC(C)C)cc1` (stereo unspecified) [Esmolol], for which the LC retention time is 5.18 min. As to `CCN(C(=O)SCc1ccccc1)C(C)C(C)C` (stereo unspecified) [Esprocarb], the LC retention time is 12.2 min. Then `Clc1ccc2c(c1)C(c1ccccc1)=NCc1nncn1-2` [Estazolam], with 8.14 min. In the case of `CCOC1OC(C(=O)O)C(O)C(O)C1O` (stereo unspecified) [EtG (Na)] it was 1.52 min; in that of `CCC1COC(Cn2cncn2)(c2ccc(Cl)cc2Cl)O1` (stereo unspecified) [Etaconazole], 10.2 min. In the case of `CCC(CO)NCCNC(CC)CO` (stereo unspecified) [Ethambutol], the LC retention time was 1.93 min.

In the case of `CCOc1ccccc1C(N)=O` [Ethenzamide], the LC retention time was 5.68 min.

Regarding `CCS(=O)(=O)Cc1ccccc1OC(=O)NC` [Ethiofencarb-sulfone], the LC retention time is 4.63 min. `CCS(=O)Cc1ccccc1OC(=O)NC` (stereo unspecified) [Ethiofencarb-sulfoxide]: the LC retention time was 4.7 min. On to `CCOP(=S)(OCC)SCSP(=S)(OCC)OCC` [Ethion], for which the LC retention time is 12.4 min. In the case of `CCS(=O)c1c(C#N)nn(-c2c(Cl)cc(C(F)(F)F)cc2Cl)c1N` (stereo unspecified) [Ethiprole] it was 9.32 min; in that of `CCCCc1c(C)nc(NCC)[nH]c1=O` [Ethirimol], 8 min; in that of `CCOC1Oc2ccc(OS(C)(=O)=O)cc2C1(C)C` (stereo unspecified) [Ethofumesate], 9.14 min. In the case of `CCOc1cc(NC(C)=O)ccc1C(=O)OC` [Ethopabate], the LC retention time is 6.63 min. Then `CCCSP(=O)(OCC)SCCC` [Ethoprophos], with 10.2 min; and `CCOc1ccc2c(c1)C(C)=CC(C)(C)N2` [Ethoxyquin], with 10.1 min; and `CCOc1ccccc1OS(=O)(=O)NC(=O)Nc1nc(OC)cc(OC)n1` [Ethoxysulfuron], with 9.32 min. Then `CCOS(=O)(=O)O` [Ethyl Sulphate (NH4)], with 1.58 min; and `CCNC(C)C(=O)c1ccc2c(c1)OCO2` (stereo unspecified) [Ethylone], with 4.04 min; and `CCOC(=O)c1ccc(O)cc1` [Ethylparaben], with 7.15 min. For `CCOC(=O)C(c1ccccc1)N1CCCCC1` (stereo unspecified) [Ethylphenidate], the LC retention time was 5.08 min.

Turning to `CCNCC(O)c1cccc(O)c1` (stereo unspecified) [Etilefrine], the LC retention time was 2.66 min. Consider `CCc1cc2c(s1)-n1c(C)nnc1CN=C2c1ccccc1Cl` [Etizolam], for which the LC retention time was 8.31 min. Then `CCc1cccc2c3c([nH]c12)C(CC)(CC(=O)O)OCC3` (stereo unspecified) [Etodolac], with 10.6 min; and `OCCOCCOCCN1CCN(C(c2ccccc2)c2ccc(Cl)cc2)CC1` (stereo unspecified) [Etodroxizine], with 8.33 min; and `CCOc1ccc(C(C)(C)COCc2cccc(Oc3ccccc3)c2)cc1` [Etofenprox], with 14.1 min. In the case of `Cn1c(=O)c2c(ncn2CCO)n(C)c1=O` [Etofylline] it was 4.09 min; in that of `CCOc1cc(C(C)(C)C)ccc1C1COC(c2c(F)cccc2F)=N1` (stereo unspecified) [Etoxazole], 12.8 min; in that of `CCOc1cc(OP(=S)(OC)OC)nc(CC)n1` [Etrimfos], 11 min. As to `C=C1CC2C(CCC3(C)C(=O)CCC23)C2(C)C=CC(=O)C=C12` (stereo unspecified) [Exemestane], the LC retention time is 9.03 min. In the case of `CC1(C)C(C(=O)c2nn(CCCCCF)c3ccccc23)C1(C)C` [FAB-144] it was 12.7 min. With `O=C(Oc1cccc2ccccc12)c1cn(Cc2ccc(F)cc2)c2ccccc12` [FDU-PB-22], the LC retention time was 12.6 min. With `CC1(C)C(C(=O)c2cn(Cc3ccc(F)cc3)c3ccccc23)C1(C)C` [FUB-144], the LC retention time is 12.2 min. In the case of `O=C(NC12CC3CC(CC(C3)C1)C2)c1nn(Cc2ccc(F)cc2)c2ccccc12` [FUB-AKB48] it was 13 min; in that of `COC(=O)C(NC(=O)c1nn(Cc2ccc(F)cc2)c2ccccc12)C(C)C` (stereo unspecified) [FUB-AMB], 10.8 min. In the case of `O=C(Oc1cccc2cccnc12)c1cn(Cc2ccc(F)cc2)c2ccccc12` [FUB-PB-22] it was 11.1 min; in that of `O=C(c1cccc2ccccc12)c1nc2ccccc2n1CCCCCF` [FUBIMINA], 11.6 min.

In the case of `NC(N)=Nc1nc(CSCCC(N)=NS(N)(=O)=O)cs1` [Famotidine], the LC retention time was 3.24 min. With `CC1(c2ccc(Oc3ccccc3)cc2)OC(=O)N(Nc2ccccc2)C1=O` (stereo unspecified) [Famoxadone], the LC retention time was 11 min. In the case of `COP(=S)(OC)Oc1ccc(S(=O)(=O)N(C)C)cc1` [Famphur] it was 7.99 min; in that of `CC(CCN1CCOCC1)OC(=O)C1(c2ccccc2)CCOCC1` (stereo unspecified) [Fedrilate], 6.12 min.
